From PubChem BioAssay (NCI)
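Where inhibition never reached the appropriate level, the endpoint shown equals the highest concentration tested. Otherwise, values were interpolated linearly from a five-concentration, 48-hour dose response in 96-well plates. GI50 = concentration required for 50% inhibition of growth. TGI denotes the concentration required for complete inhibition of growth.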

Experiments:
Experiment in all cases: NCI anticancer screen, dose series, 48 h
[1] = tested on: UACC-62 melanoma
[2] = tested on: NCI-H226 lung
[3] = tested on: COLO 205 colon
[4] = tested on: ACHN renal
[5] = tested on: SF-268 CNS
[6] = tested on: RPMI-8226 leukemia
[7] = tested on: IGROV1 ovarian
[8] = tested on: HOP-62 NSCLC
[9] = tested on: HCT-116 colon
[10] = tested on: MDA-MB-231 breast

| Compound | TGI [1] [µM] | TGI [2] [µM] | TGI [3] [µM] | TGI [4] [µM] | TGI [5] [µM] | TGI [6] [µM] | TGI [7] [µM] | TGI [8] [µM] | TGI [9] [µM] | GI50 [1] [µM] | GI50 [2] [µM] | GI50 [3] [µM] | GI50 [4] [µM] | GI50 [5] [µM] | GI50 [7] [µM] | GI50 [10] [µM] | TGI [10] [µM] | GI50 [8] [µM] | GI50 [9] [µM] | GI50 [6] [µM] |
| --- | --- | --- | --- | --- | --- | --- | --- | --- | --- | --- | --- | --- | --- | --- | --- | --- | --- | --- | --- | --- |
| O=C1C=CC2(CCC23C=CC(=O)O3)O1 (stereo unspecified) | > 100 | > 100 | > 100 | > 100 | > 100 | > 100 | > 100 | > 100 | > 100 |  |  |  |  |  |  |  |  |  |  |  |
| C=C1C(=O)O[C@@H]2C[C@@]3(C)[C@H](O)CCC(=C)[C@@H]3C[C@H]12 | 19 | 25.7 | 7.09 | 27.8 | 34.9 | 13.4 | 45.2 | 34 | 18.5 |  |  |  |  |  |  |  |  |  |  |  |
| Cc1ccc(S(=O)(=O)Nc2ccccc2C(C)(C)C)cc1 | 44.4 | 56.3 |  | > 100 |  | 54.3 | > 100 | 45.9 | 29.1 |  |  |  |  |  |  |  |  |  |  |  |
| O=C(Nc1ccccc1C(=O)NC(=O)c1ccccc1NC(=O)c1ccccc1)c1ccccc1 | 5.54 |  | 2.87 | 36.3 | 22.2 | 8.23 | 5.93 | 36.4 | 13.5 |  |  |  |  |  |  |  |  |  |  |  |
| O=C1C2C(C(=O)N1Cc1ccccc1)N(Cc1ccccc1)C(=O)N2Cc1ccccc1 (stereo unspecified) | > 100 | > 100 | > 100 | > 100 | > 100 | > 100 | > 100 | > 100 | > 100 |  |  |  |  |  |  |  |  |  |  |  |
| O=C1OC(=O)c2c1nc1ccccc1c2-c1ccccc1 | > 100 | > 100 | > 100 | > 100 | > 100 | > 100 | > 100 | > 100 | > 100 |  |  |  |  |  |  |  |  |  |  |  |
| C#Cc1cccc(NC(=O)/C=C\C(=O)O)c1 | > 100 | > 100 | > 100 | > 100 | > 100 | > 100 |  |  | > 100 |  |  |  |  |  |  |  |  |  |  |  |
| CCCCCCCCCC1CC(=O)OC23CCCC(=O)C12O3 (stereo unspecified) | > 100 | > 100 | > 100 | > 100 | > 100 | > 100 | > 100 | > 100 | > 100 |  |  |  |  |  |  |  |  |  |  |  |
| O=[N+]([O-])c1cccnc1S(=O)(=O)c1ccccc1 | 23.9 | 34.7 | 11 | 11.4 | 27.3 | 36.4 | 20.3 | 32.8 | 21.6 |  |  |  |  |  |  |  |  |  |  |  |
| CC(C)N(C(=O)C12C3C4C1C1C4(C#N)C3C12C(=O)O)C(C)C (stereo unspecified) | > 100 | > 100 | > 100 | > 100 | > 100 | > 66.7 | > 100 | > 100 | > 100 |  |  |  |  |  |  |  |  |  |  |  |
| N#Cc1c(-c2ccccc2)c(-c2ccccc2)cc2c(=O)c3ccc(Cl)cc3[nH]c12 | > 100 | > 100 | > 100 | > 100 | > 100 | > 100 | > 100 | > 100 | > 100 |  |  |  |  |  |  |  |  |  |  |  |
| C/C(=C/CCC(C)[C@@H]1CC[C@]2(C)C3=C(CC[C@@]12C)[C@@]1(C)CCC(=O)C(C)(C)[C@@H]1CC3)C(=O)O (stereo partly specified) | 1.76 | 4.56 | 3.6 | 2.73 | 3.08 |  | 2.6 | 3.57 | 2.3 | 0.469 | 1.46 | 1.86 | 1.29 | 1.47 | 1.19 | 1.53 | 3.15 | 1.99 | 0.858 |  |
| N#Cc1ccccc1Sc1ccccc1N | > 100 | 71.6 | > 100 | > 100 | > 100 |  | > 100 | > 100 |  |  |  |  |  |  |  |  |  |  |  |  |
| CC(C)(C)C1=NO[C@H]2[C@@H](NC(=O)c3ccccc3)CC[C@@H]12 | > 100 | > 100 | > 100 | > 100 | > 100 | > 100 | > 100 | > 100 | > 100 |  |  |  |  |  |  |  |  |  |  |  |
| CCOC1c2nc3ccccc3nc2-c2ccccc2N1C(C)=O (stereo unspecified) | > 100 |  | > 100 | > 100 |  | > 100 | > 100 | > 100 | > 100 |  |  |  |  |  |  |  |  |  |  |  |
| O=C(Nc1nc(=S)[nH][nH]1)C(=O)C(c1cnc2ccc([N+](=O)[O-])cc2n1)[N+](=O)[O-] (stereo unspecified) | > 100 | > 100 | > 100 | > 100 | > 100 | > 100 | > 100 | > 100 | > 100 |  |  |  |  |  |  |  |  |  |  |  |
| O=C1C=CC2(O)OCC3C=C4O[C@@H]5OC6(CCCCC6)O[C@@H]5C4[C@@H]2[C@@H]13 (stereo partly specified) | > 100 | > 100 | 30.9 | 88.4 | > 100 | 58.9 | > 100 | > 100 | 32.1 |  |  |  |  |  |  |  |  |  |  |  |
| O=C(O)c1ccccc1C(=O)c1ccco1 | > 100 | > 100 | > 100 | > 100 | > 100 |  | > 100 | > 100 | > 100 |  |  |  |  |  |  |  |  |  |  |  |
| Nc1nc(Cl)c2ncn(Cc3ccc(C45CC6CC(CC(C6)C4)C5)c(OCc4cc(F)c(F)cc4F)c3)c2n1 | 12.6 | 21.9 | 22 | 13.7 | 15.2 |  | 13.8 | 10.8 | 2.2 | 1.64 | 5.69 | 4.22 | 3.4 | 3.01 | 2.77 | 2.58 | 9.81 | 3.23 | 1.03 |  |
| COC(=O)C1CCC(C)CC1=O (stereo unspecified) | > 100 |  | > 100 | > 100 | > 100 | > 100 | > 100 | > 100 | > 100 |  |  |  |  |  |  |  |  |  |  |  |
| O=C([O-])c1ccc([I+]c2ccccc2)cc1 | > 100 | > 100 | > 100 |  | > 100 | > 100 | > 100 | > 100 | > 100 |  |  |  |  |  |  |  |  |  |  |  |
| NC(=O)c1nc(-c2c(F)cccc2Cl)oc1Nc1ccc(C(=O)N2CCOCC2)cc1 |  | > 100 | 5.89 | > 100 | > 100 | 50.7 |  | > 100 | 20 |  | 0.266 | 1.64 | 2.41 | 3.07 |  | 1.86 | > 100 | 2.08 | 1.36 | 7.44 |
